The nature of data set [1]: Comparative: solubility of BMDBM in 1:1 (w/w) mixture of C12-15 alkyl benzoate and a polymeric or solid UV-filter (HPLC after 1 month at RT).
Excerpt: Where necessary the mixture was centrifuged in order to obtain a clear supernatant.
Data set [2] in a line: Solubility of BMDBM or BEMT in C12-15 alkyl benzoate (saturation, HPLC of supernatant). Type of data set: physicochemical.
Data set [3] is described as follows: Solubility of BEMT in 1:1 (w/w) mixture C12-15 alkyl benzoate/PG-UVAB1 (dissolving, storage 1 month at RT). Type of data set: physicochemical.
The nature of data set [4]: Reduction of solvent necessary to dissolve solid UV-filter. In kind it is physicochemical.

The record followed here is patent publication US20140093459A1, “NOVEL COMPOUND” (DSM IP ASSETS B.V., priority 2009, published 2014).

For `CCCCC(CC)COc1ccc(-c2nc(-c3ccc(OC)cc3)nc(-c3ccc(OCC(CC)CCCC)cc3O)n2)c(O)c1` (stereo not shown) [BEMT, bis-ethylhexyloxyphenol methoxyphenyl triazine], in data set [1] (200 mg BMDBM with 1000 mg of 1:1 (w/w) mixture, supernatant HPLC after 1 month at RT), the “Solubility of BMDBM in C12-15 alkyl benzoate/UV-filter 1:1” value was found to be 3 wt.-%. Further, the “Δ solubility related to cosmetic solvent (BMDBM)” value in data set [1] (1:1 mixture C12-15 alkyl benzoate/UV-filter) is −4 wt.-%. Besides, the “Δ solubility (BMDBM)” value in data set [1] (1:1 mixture with UV-filter versus C12-15 alkyl benzoate alone) is reported as −11 wt.-%. The “Solubility in C12-15 alkyl benzoate” value in data set [2] (C12-15 alkyl benzoate alone (summary table)) turned out to be 13 wt.-%. Moreover, the “solubility in the cosmetic solvent C12-15 alkyl benzoate” value in data set [2] (C12-15 alkyl benzoate alone, saturation, HPLC of supernatant) is given as 13 wt.-%. Further, the re-crystallization on storage entry in data set [3] (200 mg BEMT in 800 mg 1:1 C12-15 alkyl benzoate/PG-UVAB1, stored 1 month at RT) is listed as “no re-crystallization occurred”. The “solubility of BEMT in 1:1 (w/w) mixture of C12-15 alkyl benzoate/PG-UVAB1” value in data set [3] (200 mg BEMT in 800 mg of the mixture, 1 month at RT) is on record as “at least 20 wt.-%”. Besides, in data set [3] (1:1 mixture with PG-UVAB1), the “Solubility of BEMT in C12-15 alkyl benzoate/PG-UVAB1 1:1” value amounted to 20 wt.-% and the “Δ solubility related to cosmetic solvent (BEMT)” value is reported as “+13.5 wt.-%”. Further, the “Δ solubility (BEMT)” value in data set [3] (1:1 mixture with PG-UVAB1 versus C12-15 alkyl benzoate alone) is on record as “+7 wt.-%”. In addition, the “Increase of solubility of BEMT” value in data set [3] (BEMT, 1:1 mixture with PG-UVAB1 versus C12-15 alkyl benzoate alone) is “+54%”.
For butyl methoxydibenzoylmethane [BMDBM], in data set [4] (1:1 (w/w) PG-UVAB1/diisopropyl sebacate), the “amount of 1:1 (w/w) mixture of PG-UVAB1 and diisopropyl sebacate needed to dissolve 0.5 g BMDBM” value came out at 1.4 g. In addition, the “amount of 1:1 (w/w) mixture of PG-UVAB2 and C12-15 alkyl benzoate necessary to dissolve 0.5 g BMDBM” value in data set [4] (1:1 (w/w) PG-UVAB2/C12-15 alkyl benzoate) turned out to be 1.5 g.
